“Also recorded” adds a separate entry of the source.

Results on 2 molecules are retold here after patent publication US20060058504A1, “Peptides capable of inducing attraction to the axonal growth and their use for treating neurodegenerative diseases” (Centre National de la Recherche Scientific (CNRS), priority 2002, published 2006).

In assay [1] the test system is Sema3A-induced endocytosis in neonatal cortical cells. The assay can be described thus: Rhodamine-Dextran uptake in neonatal cortical cells. The assay is classed as cell-based. The conditions noted are these: 15 min, peptide 10^−5M. As to the method: (§1) Neonatal cortical cells or COS7 cells transfected with expression vectors for L1 and NP-1 were incubated for 15 min with Rhodamine-Dextran (2 mg/ml) mixed to a solution of Sema3A-AP supernatant, Sema3A and peptide (10^−5M), peptide alone (10^−5M) or control supernatant. Cells were fixed with PFA 4% and processed for immunocytochemistry as described in the above sections. To detect intracellular proteins, cells were permeabilized with methanol for 2 min.
(§2) Therefore it has been tested whether L1 mimetic peptide was able to block endocytosis. To visualize endocytosis we examined the uptake of Rhodamine-Dextran applied on live cortical cultures in various conditions. Cells were treated for 15 min with Rhodamine-Dextran together with Sema3A alone, Sema3A combined with the L1 mimetic peptide, peptide alone or untreated as control conditions. Strikingly, uptake of Rhodamine-Dextran was exclusively observed when cells were treated with Sema3A alone. Under this condition, spots of internalized fluorescence were observed along axon shafts and surrounding the cell bodies. […] To correlate this process with L1/NP-1 cis and trans interactions, the experiments of Rhodamine-Dextran uptake were performed on COS7 cells transfected to co-express L1 and NP-1 (FIG. 6B).

Assay [2] relates to Sema3A-induced co-internalization of L1 and NP-1. Kind of assay: Immunocytochemical detection of cell-surface L1 and NP-1. The format is cell-based. The conditions noted are these: peptide 10^−5M. As to the method: as §1
In parallel, cells submitted to the same treatments were processed for immunocytochemical detection of L1 and NP-1. […] Furthermore, in the Sema3A-treated cultures L1 and NP-1 immunoreactivities were detected after permeabilization, as co-localized cytoplasmic patches (FIGS. 7F-7H).

The test system of assay [3] is L1/NP-1 complex. The assay can be described thus: Co-immunoprecipitation of the L1/NP-1 complex in presence of peptide. The format is binding. The conditions noted are these: Sema3A combined to the peptide. As to the method:
COS cells were transfected with various expression vectors coding for full-length HA-tagged NP-1, myc-tagged cyt-deleted NP-1, wild-type L1, and L1 mutant constructs (G121S, A426D, L120V) using a lipofection transfection method (lipofectamine). After 2 DIV, cells were lysed with immunoprecipitation buffer (IP buffer: Hepes 25 mM, EDTA 5 mM, MgCl2 1 mM, PMSF 2 mM, glycerol 10% and triton X100 1%, pH 7). The lysate was incubated at 4° C. for 30 min, centrifuged for 5 min and pre-cleared with protein A-Sepharose for 2 hrs at 4° C. Samples were immunoprecipitated with mouse anti-HA (3μl, clone 12CA5, Roche), rabbit anti-L1 antibodies (3 μl), mouse anti-myc antibodies (3 μl, 9E 10, Sigma) coupled to rabbit anti-mouse antibodies on protein A preformed complexes for 16 hrs at 4° C. The beads were washed, and the precipitates analyzed by immunoblot using anti-HA (1:1000) and anti-L1 (1:1000) antibodies.
A possible molecular mechanism by which soluble L1 and its mimetic peptide could exert their modulatory effect on Sema3A signaling is that they compete with transmembrane L1 in the L1/NP-1 complex. To address this issue we examined in immunoprecipitation experiments the L1/NP-1 complex in conditions mimicking either a repulsive (Sema3A alone) or an attractive (Sema3A combined to the peptide) environment. […]

In assay [4] the test system is cortical axons repelled by Sema3A secreted from the ventral spinal cord. The assay can be described thus: Co-culture of cortical slices and ventral spinal cord explants (axon guidance response to Sema3A). The format is cell-based, mice. The method in brief: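 Cortical slices from P0–P2 mice were co-cultured in a 3D plasma clot with ventral cervical spinal cord explants, alone or with L1Fc chimeras (3 μg/ml), ODQ (10^−5 M) or 7NI ([…]). After 1–2 DIV and PFA fixation, guidance was scored from −2 (repulsion) to +2 (attraction). Axon number and the three longest fibre lengths were measured in proximal and distal 600 μm regions.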

Assay [5] concerns Sema3A-induced endocytosis in COS7 cells co-expressing L1 and NP-1. Kind of assay: Rhodamine-Dextran uptake in COS7 cells co-expressing L1 and NP-1. Particulars: 15 min, peptide 10^−5M. The assay is classed as cell-based. The procedure:
as §1, §2

The subject of assay [6] is NP-1. Kind of assay: Binding of L1Fc chimeras to NP-1 expressing COS7 cells (immunofluorescence). As to the method: The mutant L1Fc chimeras were produced and purified as described previously (De Angelis et al., 1999). Briefly, COS-7 cells were transiently transfected with 10 μg DNA per 150 mm culture dish, the soluble Fc chimeric protein was allowed to accumulate in the media for 6 days and was recovered and purified by protein A-Sepharose affinity chromatography. In the binding experiments, L1Fcs were cross-linked to anti-human Fc antibodies (50 μg/ml, Jackson Immunoresearch) for 1 hr at 37° C. Binding detection to NP-1 requested concentrations of L1Fcs 10 folds higher than L1. Antibody conjugated L1-Fc protein was then incubated with monolayers of COS7 cells transiently transfected with expression vectors encoding full length human L1 or myc-tagged NP-1 where the cytoplasmic domain is deleted (gift of J. Raper, 2000 and Renzi et al., 1999). Following incubation, the cells were fixed with 4% PFA, and processed for double-immunofluorescence detection. NP-1 was detected using a mouse anti-c myc antibody (clone 9E10, Sigma) and L1 using a rat monoclonal anti-L1 antibody. Secondary antibody anti-c-myc (Texas-red conjugated anti-mouse antibodies) was used to detect NP-1, anti-L1 (Texas red conjugated anti-rat antibodies) to detect L1, and anti-Fc (FITC conjugated anti-rabbit antibodies) to detect bound L1Fc chimeras. After secondary antibody incubation, the cells were washed with PBS and mounted in Mowiol (Calbiochem).
Next, we examined the ability of the mutant L1 Fc chimeras to bind NP-1. COS7 cells were transfected with a vector encoding the extracellular and transmembrane domains of NP-1 fused to a myc tag (ANP-1, Renzi et al., J. Neurosci., 15:7870-7880, 1999), and incubated with the mutant L1Fc chimeras. Binding was detected by immunofluorescence. […] Binding of L120V, G121S and A426D L1Fcs to NP-1 is illustrated in FIG. 3.

Assay [7] has as its target T1, F3, axonin-1 and TAX-1 (Homo sapiens, UniProt Q02246).
T1 sequence (Q02246 31-1012): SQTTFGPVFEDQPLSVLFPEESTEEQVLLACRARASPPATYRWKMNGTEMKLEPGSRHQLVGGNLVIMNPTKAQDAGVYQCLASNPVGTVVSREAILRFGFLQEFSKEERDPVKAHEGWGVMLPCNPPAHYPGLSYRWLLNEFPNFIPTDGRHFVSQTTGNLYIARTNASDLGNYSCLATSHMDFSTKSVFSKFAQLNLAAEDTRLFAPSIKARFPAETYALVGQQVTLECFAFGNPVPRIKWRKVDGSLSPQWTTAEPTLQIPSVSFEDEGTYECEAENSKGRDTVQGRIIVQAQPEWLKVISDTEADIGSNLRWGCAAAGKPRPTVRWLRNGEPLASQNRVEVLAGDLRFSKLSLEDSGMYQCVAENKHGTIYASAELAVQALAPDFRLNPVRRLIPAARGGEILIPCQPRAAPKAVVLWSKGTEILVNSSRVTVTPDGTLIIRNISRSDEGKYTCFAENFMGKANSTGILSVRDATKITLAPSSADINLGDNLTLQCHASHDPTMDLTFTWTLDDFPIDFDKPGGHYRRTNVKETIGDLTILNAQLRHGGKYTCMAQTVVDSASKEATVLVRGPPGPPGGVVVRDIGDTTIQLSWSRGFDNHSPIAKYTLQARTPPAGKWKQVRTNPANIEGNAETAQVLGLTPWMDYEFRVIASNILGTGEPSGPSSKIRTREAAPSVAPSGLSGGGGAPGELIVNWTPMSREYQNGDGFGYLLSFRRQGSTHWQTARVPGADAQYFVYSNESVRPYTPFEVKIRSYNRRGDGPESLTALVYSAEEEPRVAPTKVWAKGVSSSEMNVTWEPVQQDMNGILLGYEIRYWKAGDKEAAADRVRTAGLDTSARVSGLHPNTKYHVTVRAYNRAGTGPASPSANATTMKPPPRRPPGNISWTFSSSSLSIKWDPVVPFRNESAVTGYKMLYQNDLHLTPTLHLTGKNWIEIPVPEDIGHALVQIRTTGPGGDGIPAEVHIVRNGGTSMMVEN
Particulars: TAX-1; cited from earlier work.

For assay [8], the system named is F3, axonin-1 and TAX-1. Particulars: F3, axonin-1 (and TAX-1 where stated); cited from earlier work.
In assay [9] the test system is L1. The conditions noted are these: mutant bound to itself; cited from earlier work.

Sequence of L1/NP-1 complex (O14786 22-923): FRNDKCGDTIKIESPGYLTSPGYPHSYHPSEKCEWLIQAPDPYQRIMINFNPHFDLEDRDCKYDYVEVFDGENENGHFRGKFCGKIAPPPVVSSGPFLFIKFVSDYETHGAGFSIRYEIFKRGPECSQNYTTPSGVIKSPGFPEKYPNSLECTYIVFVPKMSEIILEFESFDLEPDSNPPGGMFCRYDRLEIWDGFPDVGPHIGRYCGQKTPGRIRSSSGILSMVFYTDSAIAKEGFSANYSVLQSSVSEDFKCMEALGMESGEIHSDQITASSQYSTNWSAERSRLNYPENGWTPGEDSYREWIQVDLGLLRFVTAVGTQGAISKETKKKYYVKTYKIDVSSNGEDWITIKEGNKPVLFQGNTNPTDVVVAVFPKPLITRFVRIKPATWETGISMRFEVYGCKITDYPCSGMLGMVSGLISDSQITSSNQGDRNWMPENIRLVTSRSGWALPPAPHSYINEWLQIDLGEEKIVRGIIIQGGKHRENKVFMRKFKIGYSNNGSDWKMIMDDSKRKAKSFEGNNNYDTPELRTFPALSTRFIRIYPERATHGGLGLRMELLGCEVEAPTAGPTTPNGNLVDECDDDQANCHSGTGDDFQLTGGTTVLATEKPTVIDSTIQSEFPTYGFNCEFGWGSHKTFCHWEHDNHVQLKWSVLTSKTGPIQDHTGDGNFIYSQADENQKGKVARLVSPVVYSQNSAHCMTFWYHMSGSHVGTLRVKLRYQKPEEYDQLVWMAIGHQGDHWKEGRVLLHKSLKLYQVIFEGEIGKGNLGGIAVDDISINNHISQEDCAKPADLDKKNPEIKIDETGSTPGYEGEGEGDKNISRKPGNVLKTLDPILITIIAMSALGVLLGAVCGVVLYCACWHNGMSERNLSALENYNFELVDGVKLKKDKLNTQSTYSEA
Sequence of L1/NP-1 complex (P32004 20-1257 partner): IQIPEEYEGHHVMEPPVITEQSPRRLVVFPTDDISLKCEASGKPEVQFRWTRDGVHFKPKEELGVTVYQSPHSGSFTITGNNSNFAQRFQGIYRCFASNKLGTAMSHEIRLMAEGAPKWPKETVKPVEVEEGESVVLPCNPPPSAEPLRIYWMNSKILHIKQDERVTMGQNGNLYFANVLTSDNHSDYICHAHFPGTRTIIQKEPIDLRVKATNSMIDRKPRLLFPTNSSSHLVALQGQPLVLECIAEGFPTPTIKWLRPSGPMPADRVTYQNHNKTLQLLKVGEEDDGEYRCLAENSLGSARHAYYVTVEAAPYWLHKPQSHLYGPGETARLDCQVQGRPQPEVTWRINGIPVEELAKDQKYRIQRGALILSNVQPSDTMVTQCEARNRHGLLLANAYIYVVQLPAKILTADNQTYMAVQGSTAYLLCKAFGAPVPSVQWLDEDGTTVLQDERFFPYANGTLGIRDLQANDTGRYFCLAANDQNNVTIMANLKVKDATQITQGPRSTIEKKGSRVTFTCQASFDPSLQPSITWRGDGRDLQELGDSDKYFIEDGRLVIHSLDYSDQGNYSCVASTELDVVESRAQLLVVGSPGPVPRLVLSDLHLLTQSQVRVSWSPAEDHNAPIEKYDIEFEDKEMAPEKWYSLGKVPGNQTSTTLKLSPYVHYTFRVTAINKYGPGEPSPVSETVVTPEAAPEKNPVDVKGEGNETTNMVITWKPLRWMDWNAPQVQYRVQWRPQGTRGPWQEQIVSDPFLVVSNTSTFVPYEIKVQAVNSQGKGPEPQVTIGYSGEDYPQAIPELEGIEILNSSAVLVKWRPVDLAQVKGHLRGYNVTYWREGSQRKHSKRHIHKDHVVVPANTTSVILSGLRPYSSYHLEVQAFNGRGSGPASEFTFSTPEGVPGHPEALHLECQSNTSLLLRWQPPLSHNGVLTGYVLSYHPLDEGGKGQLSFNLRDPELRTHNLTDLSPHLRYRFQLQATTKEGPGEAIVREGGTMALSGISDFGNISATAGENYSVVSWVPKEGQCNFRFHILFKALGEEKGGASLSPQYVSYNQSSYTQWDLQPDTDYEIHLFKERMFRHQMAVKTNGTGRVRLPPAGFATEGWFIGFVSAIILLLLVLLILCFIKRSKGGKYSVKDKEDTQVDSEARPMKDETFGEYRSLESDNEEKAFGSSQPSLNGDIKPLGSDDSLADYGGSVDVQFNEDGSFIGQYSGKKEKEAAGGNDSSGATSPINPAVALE

In the case of “FASNKL (Description of the Artificial sequence Derived from the human amino-acid sequence of L1 Ig1 domain) [FASNKL120, six amino-acid peptide from L1 Ig1 domain]”, the “Rhodamine-Dextran uptake, Sema3A combined with peptide” value in [1] (listed as L1 mimetic peptide) is “blocks Sema3A-induced endocytosis; also recorded: Internalization was blocked”; in assay [1] (listed as peptide mimicking soluble L1), “blocks Sema3A-induced endocytosis”; in assay [5], “This process was blocked”; in [5] (listed as mimetic peptide), “but not Sema3A combined with the mimetic peptide induced internalization”. For the same molecule, the “Rhodamine-Dextran uptake, peptide alone” value in assay [1] (listed as L1 mimetic peptide) is listed as “no uptake of Rhodamine-Dextran could be detected; also recorded: Uptake of Rhodamine-Dextran was not detected”; in assay [5], “no endocytosis could be detected”; in [5] (listed as mimetic peptide), “No fluorescent labeling was detected”. For the same molecule, the “L1 and NP-1 cell surface expression, Sema3A combined with peptide” value in [2] is listed as “the two proteins were detected; also recorded: blocked by the peptide; also recorded: detected on the cell membrane”; in assay [2] (listed as switching peptide), “this process was blocked”. Moreover, the “L1 and NP-1 cell surface expression, peptide alone” value in assay [2] was “cell surface expression was observed”; in assay [2] (listed as switching peptide) it was “the two proteins were detected”. Also, the “cis interaction between L1 and NP-1 in presence of the peptide” value in assay [3] was “did not abrogate the cis interaction between L1 and NP-1”. The “switching of Sema3A repulsion to attraction by peptide” value in [4] (peptide at 10^−5 and 10^−6M) is on record as “switched Sema3A repulsion to attraction”. In addition, the “conversion of Sema3A-induced chemorepulsion into attraction by peptide” value in assay [4] (peptide at 10^−6M) was “successfully converted Sema3A-induced chemorepulsion into attraction”.

B1: D598N: L1Fc chimera with missense mutation D598N in Ig domain 6 (protein)
chain: IQIPEEYEGHHVMEPPVITEQSPRRLVVFPTDDISLKCEASGKPEVQFRWTRDGVHFKPKEELGVTVYQSPHSGSFTITGNNSNFAQRFQGIYRCFASNKLGTAMSHEIRLMAEGAPKWPKETVKPVEVEEGESVVLPCNPPPSAEPLRIYWMNSKILHIKQDERVTMGQNGNLYFANVLTSDNHSDYICHAHFPGTRTIIQKEPIDLRVKATNSMIDRKPRLLFPTNSSSHLVALQGQPLVLECIAEGFPTPTIKWLRPSGPMPADRVTYQNHNKTLQLLKVGEEDDGEYRCLAENSLGSARHAYYVTVEAAPYWLHKPQSHLYGPGETARLDCQVQGRPQPEVTWRINGIPVEELAKDQKYRIQRGALILSNVQPSDTMVTQCEARNRHGLLLANAYIYVVQLPAKILTADNQTYMAVQGSTAYLLCKAFGAPVPSVQWLDEDGTTVLQDERFFPYANGTLGIRDLQANDTGRYFCLAANDQNNVTIMANLKVKDATQITQGPRSTIEKKGSRVTFTCQASFDPSLQPSITWRGDGRDLQELGDSDKYFIEDGRLVIHSLDYSDQGNYSCVASTELNVVESRAQLLVVGSPGPVPRLVLSDLHLLTQSQVRVSWSPAEDHNAPIEKYDIEFEDKEMAPEKWYSLGKVPGNQTSTTLKLSPYVHYTFRVTAINKYGPGEPSPVSETVVTPEAAPEKNPVDVKGEGNETTNMVITWKPLRWMDWNAPQVQYRVQWRPQGTRGPWQEQIVSDPFLVVSNTSTFVPYEIKVQAVNSQGKGPEPQVTIGYSGEDYPQAIPELEGIEILNSSAVLVKWRPVDLAQVKGHLRGYNVTYWREGSQRKHSKRHIHKDHVVVPANTTSVILSGLRPYSSYHLEVQAFNGRGSGPASEFTFSTPEGVPGHPEALHLECQSNTSLLLRWQPPLSHNGVLTGYVLSYHPLDEGGKGQLSFNLRDPELRTHNLTDLSPHLRYRFQLQATTKEGPGEAIVREGGTMALSGISDFGNISATAGENYSVVSWVPKEGQCNFRFHILFKALGEEKGGASLSPQYVSYNQSSYTQWDLQPDTDYEIHLFKERMFRHQMAVKTNGTGRVRLPPAGFATE
modifications: left off: a dimerising Fc or GST
B1: in assay [6], the “binding to NP-1 expressing cells” value was “bound NP-1 expressing cells”. Also, in [7], the “effect of mutation on heterophilic binding to TAX-1” value is recorded as “though not to TAX-1”. In assay [8], the “effect of mutation on heterophilic binding” value was “significantly reduces”. Also, the “effect of mutation on homophilic binding” value in assay [9] is given as “very modest effect”. Further, the “switching of Sema3A repulsion to attraction by L1Fc chimera” value in assay [4] (chimera 3 μg/ml in culture medium) is listed as “able to reverse Sema3A repulsion to attraction; also recorded: efficiently induce switching of Sema3A repulsion to attraction; also recorded: switched Sema3A from repulsion to attraction to the same extent as wild type L1Fc”.
